Measured values: patent US20250090562A1, “METHODS, COMPOSITIONS AND USES RELATED TO THE TREATMENT AND PREVENTION OF LEIGH’S SYNDROME” (Stealth BioTherapeutics Inc., priority 2023, published 2025)
“Also recorded” adds a separate entry of the source.

How the values were obtained:
[1] = tested on: Healthy (GM08402) fibroblasts; experiment: RSL3 cytoprotection assay, healthy fibroblasts; type: cell-based, human; details: for relative anti-ferroptosis properties (comparison between test articles): 1 μM RSL3, 10-1000 nM compound, 4 h
Protocol: (§1) Patient fibroblasts were acquired from Coriell Institute for Medical Research (Camden, NJ, USA). GM03672 is an untransformed fibroblast cell line from a Leigh syndrome patient carrying an unknown mutation. GM08402 is an untransformed fibroblast from an apparently healthy individual. Cells were cultured at 37° C. at 5% CO2 in Eagle's Minimum Essential Medium (MEM, Corning), which was supplemented with Earle's salts and non-essential amino acids, 15% qualified fetal bovine serum, and 1% penicillin/streptomycin ([…]) to yield “Complete MEM.”
(§2) To initiate the RSL3 cytoprotection experiment, Healthy (GM08402) and Leigh syndrome (GM03672) fibroblasts were resuspended in Complete MEM. Cells were seeded at 10,000 cells per well in a clear, tissue cultured-treated, 96-well plate and incubated at 37° C. overnight. Following the incubation, supernatant was manually aspirated, taking care not to disrupt cells. […]. Luminescence units were quantified by GEN5 software on a BioTek SYNERGY neo2 plate reader (LUM filter).
(§3) RSL3 is an inhibitor of the enzyme glutathione peroxidase 4 (GPX4), which decreases lipid peroxides. RSL3 inhibition of GPX4 induces ferroptosis through iron-dependent accumulation of lipid ROS. In this assay, Healthy or Leigh fibroblasts were treated for 4 hours with RSL3 to induce ferroptosis or left untreated. Endogenous ATP levels were measured as an indicator of cellular viability using a commercially available kit (CellTiter-Glo® 2.0 Cell Viability Assay (Promega)).
(§4) […]. […] Briefly, ferroptosis was induced with 1 μM RSL3 in healthy fibroblast cells and 375 nM RSL3 in fibroblasts from a patient with Leigh syndrome.
(§5) A preliminary experiment was performed to determine the effect of RSL3 injury on the fibroblasts of a healthy individual (cell line: GM08402) and the fibroblasts of a patient diagnosed with Leigh syndrome (cell line: GM03672).

[2] = tested on: Leigh syndrome (GM03672) fibroblasts; experiment: RSL3 cytoprotection assay, Leigh fibroblasts; type: cell-based, human; details: for relative anti-ferroptosis properties (comparison between test articles): 375 nM RSL3, 10-1000 nM compound, 4 h
Protocol: as §1, §2, §3, §4, §5

[3] = tested on: Leigh fibroblasts (GM03672); experiment: Mitochondrial membrane potential (TMRM flow cytometry) in RSL3-treated Leigh fibroblasts; type: cell-based, human; details: 1 μM RSL3 alone, 4 h
Protocol: Leigh fibroblasts (GM03672) were seeded in a 24-well, tissue culture-treated plate in complete MEM (MEM+15% FBS+1% penicillin/streptomycin) at a density of 1×10^5 cells per 500 μL and incubated overnight at 37° C. at 5% CO2. Cells were treated for 4 hours at 37° C. with either 1 μM RSL3, 1 μM RSL3 with 1 μM Compound 3 or media for untreated cells. Following the incubation, supernatant was removed and cells were treated with 0.25% trypsin for 5 min at 37° C. Trypsin was neutralized with an equal part MEM. Cells were dislodged with gentle pipetting and pelleted at 300×g for 5 minutes. Pellets were resuspended in 500 μL Fluobrite DMEM and cells were transferred to a 96-well, v-bottom plate. Cells were stained with 20 nM MitoTracker Green and 100 nM tetramethylrhodamine methyl ester (TMRM) Samples were incubated for 25 minutes at 37° C. Each well was mixed immediately prior to analysis to resuspend settled cells. Fluorescence intensity was measured on the BD Accuri C6 Plus Flow Cytometer. A minimum of 10,000 events per sample was collected. Data analysis was performed using FloJo vs. 10. Gating was performed by establishing an initial forward scatter vs. side scatter gate. MitoTracker Green positive, TMRM positive cells were identified through subsequent gating. Median fluorescence intensity (MFI) of TMRM fluorescence was determined. Using GraphPad Prism 10, statistical significance between groups was determined by One-way ANOVA. A p-value of less than 0.05 was considered significant. Results are presented graphically in FIG. 20.

[4] = tested on: rotenone-inhibited Complex I; experiment: Complex I-bypass assay ((CI)-bypass assay), high-resolution respirometry O2 consumption; type: cell-based, human; details: Leigh (GM03672) fibroblasts, 0.5 μM rotenone; for Complex I by-pass activity (restoration of oxygen consumption rate): titrations 125 nM to 8 μM
Protocol: All high-resolution respirometry experiments were conducted using the Oroboros O2k-Fluorespirometer (Oroboros, Innsbruck, Austria). The Oroboros O2k-Fluorespirometer was calibrated daily using the air calibration protocol on DatLab 7.4 (Oroboros, Innsbruck, Austria). Prior to each experiment requiring the fluorescence module, the AmpR calibration protocol from DatLab 7.4 was used to calibrate the fluorescence signal. Initial data analysis, including setting of marks, was performed using DatLab 7.4.
Complex I-bypass activity was assessed using HRR to measure O2 consumption. Briefly, Leigh (GM03672) fibroblasts were harvested with trypsin, pelleted at 300×g centrifugation, and resuspended in prewarmed, complete MEM. Cells were added to each chamber via buffer replacement at a concentration of 1-2 million per mL. The chambers were closed to initiate measurement of O2 consumption. The slope negative signal, which is a derivative of O2 consumption, was allowed to stabilize over the course of several minutes. Using a Hamilton syringe to allow for continuous measurement of O2 consumption, glutamate (10 mM final concentration) and malate (0.1 mM final concentration) were added to the closed chamber through the central capillary of the stopper. The slope negative signal was stabilized for several minutes, and rotenone was added at a final concentration of 0.5 μM. One of Compounds 1 to 4 or Vatiquinone was added at increasing concentrations, allowing for several minutes of stabilization of the slope negative signal between titrations. Marks were set at signal plateaus in between titrations. Values were exported and analyzed using GraphPad Prism 9. […] Responsiveness of cells was confirmed with idebenone.
Statistical analysis was performed using GraphPad Prism 9. Complex I-bypass data were fit using nonlinear sigmoidal 4P fit. RET Assay data were analyzed by 2-way ANOVA using a p-value of 0.05.
The Complex 1-bypass assay ((CI)-bypass Assay) evaluates the capacity of compounds to donate electrons into the electron transport chain (ETC) when Complex I is impaired or otherwise deficient. Normally, electrons feed into the ETC through Complex I. In instances where Complex I is impaired, electrons must enter the ETC downstream of Complex I for oxidative phosphorylation (OXPHOS) to occur. Complex I is composed of 46 subunits, encoded by mitochondrial and nuclear genes. Due to its large size, Complex I mutations are a common cause of ETC dysfunction in mitochondrial diseases. Indeed, mutations in the genes that encode subunits for Complex I are important causes of Leigh and Leigh-like syndrome.
Using this assay, the ability of Compounds 1 to 4 and Vatiquinone to bypass rotenone-inhibited Complex I was determined. Rotenone is a widely used Complex I inhibitor and blocks the transfer of electrons from the iron-sulfur complexes on Complex I to ubiquinone. Thus, when rotenone is introduced to cells underdoing routine respiration, a decrease in oxygen consumption is observed, which is indicative of disrupted OXPHOS. The ability of Compounds 1 to 4 and Vatiquinone to “bypass” Complex I and restore OXPHOS is measured by an increase in oxygen consumption rate following addition of the compound to the chamber.
In executing this assay, in each instance, fibroblasts are added to each chamber of the Oroboros Oxygraph-2K (the “O2k”). The O2k generates two traces: 1) total oxygen consumption over time, 2) the rate of oxygen consumption over time (slope negative). Baseline respiration is established for several minutes by allowing the slope negative to stabilize. Rotenone is introduced to each chamber at a final concentration of 0.5 μM. The addition of rotenone is expected to cause a marked reduction of OXPHOS as measured by a decreased rate of oxygen consumption. Then the test article (i.e., in this case one of Compounds 1 to 4 or Vatiquinone) is added to the chamber. […]

[5] = tested on: Healthy (GM08402) fibroblasts; experiment: Erastin cytoprotection assay, healthy fibroblasts; type: cell-based, human; details: 2 μM erastin, 250 μM FAC, 50 μM AA, 10-1000 nM compound, 24 h
Protocol: (§6) Briefly, Healthy (GM08402) or Leigh (GM03672) fibroblasts were resuspended in assay medium, seeded at 10,000 cells per well in a clear, tissue cultured-treated, 96-well plate, and incubated at 37° C. overnight. Following the incubation, supernatant was manually aspirated from wells, taking care not to disrupt cells. Fibroblasts were co-treated in a final volume of 100 μL with 2 μM erastin (Millipore Corp., Cat #), 250 μM ferric ammonium citrate (FAC), 50 μM ascorbic acid (AA), and a titration of one of each of Compounds 1 to 4 or Vatiquinone ranging from 10 to 1000 nM. Following another 24-hour incubation at 37° C., cell viability was measured using the CellTiter-Glo Luminescent Cell Viability Kit (ProMega) per Manufacturer's instructions. Luminescence units were quantified by GEN5 software on a BioTek SYNERGY neo2 plate reader (LUM filter).
(§7) Briefly, erastin, like RSL3, is known to induce ferroptosis. […] Erastin was incubated with cell fibroblasts for 24 hours to induce ferroptosis. Cells were co-treated with each of Compounds 1 to 4, or Vatiquinone as the test articles. Test articles were administered at a range of concentrations to derive a curve. Cell viability was determined using a commercially available kit that measures ATP production. […] An increase in cell viability as determined by the assay is considered to be protective against ferroptosis.

[6] = tested on: Leigh (GM03672) fibroblasts; experiment: Erastin cytoprotection assay, Leigh fibroblasts; type: cell-based, human; details: 2 μM erastin, 250 μM FAC, 50 μM AA, 10-1000 nM compound, 24 h
Protocol: as §6, §7

[7] = patients with pontocerebellar hypoplasia type 6; cited from earlier work
[8] = tested on: 15-lipoxygenase (15-LO); experiment: 15(S)-HETE ELISA following RSL3 treatment, Leigh fibroblasts; type: cell-based, human; details: 700 nM RSL3, 1 μM compound, 24 h
Protocol: Samples for the 15(S)-HETE ELISA were generated by the RSL3 cytoprotection assay described above. Healthy or Leigh fibroblasts were resuspended in assay medium, seeded at 200,000 cells per well in a clear, tissue culture-treated, 24-well plate. Cells were incubated at 37° C. for 24 hours. Supernatant was aspirated from each well following the incubation.
Fibroblasts from both a healthy individual and a patient diagnosed with Leigh syndrome were examined (but not all compounds were examined in each cell type). Activation of ferroptosis has been implicated as a driver of epilepsy, which is commonly associated with Leigh syndrome. […] Kahn-Kirby et al. PLOS One. […] As a key regulator of ferroptosis, 15-LO serves as a rational therapeutic target in Leigh syndrome.

| Structure (SMILES) | RSL3 concentration sufficient for 25-30% killing of cells ([1]; healthy fibroblasts GM08402, 4 h) | RSL3 concentration sufficient for 25-30% killing of cells ([2]; Leigh fibroblasts GM03672, 4 h) | mitochondrial membrane potential (TMRM MFI) [3] | Complex I by-pass activity (restoration of oxygen consumption rate) [4] | relative anti-ferroptosis properties (comparison between test articles) [1] | relative anti-ferroptosis properties (comparison between test articles) [2] | relative protective effect against erastin induced ferroptosis (cell viability, ATP) [5] | relative protective effect against erastin induced ferroptosis (cell viability, ATP) [6] | effect on seizures [7] | EC50 ([4]; oxygen consumption rate, read-out: EC50 value, Complex I by-pass activity) | relative 15-LO inhibition (comparison between test articles) [8] |
| --- | --- | --- | --- | --- | --- | --- | --- | --- | --- | --- | --- |
| COC(=O)c1ccc([C@H]2c3[nH]c4ccccc4c3C[C@H](C(=O)OC)N2C(=O)CCl)cc1 [RSL3, (1S,3R)-Methyl 2-(2-chloroacetyl)-2,3,4,9-tetrahydro-1-[4-(methoxycarbonyl)phenyl]-1H-pyrido[3,4-b]indole-3-carboxylate, reference compound] | 1 µM | 700 nM | significant reduction in mitochondrial membrane potential | – | – | – | – | – | – | – | – |
| CC(C)=CCC/C(C)=C/CC/C(C)=C/CC[C@@](C)(O)CCC1=C(C)C(=O)C(C)=C(C)C1=O [Vatiquinone, reference compound] | – | – | – | no CI-bypass activity; also recorded: inactive | roughly equivalent in their anti-ferroptosis properties | roughly equivalent in their anti-ferroptosis properties | about equally protective | superior in its protective effect as compared with Compounds 1 and 4 | reduce the incidence of seizures; also recorded: decrease seizure frequency and morbidity | – | – |
| COC1=C(OC)C(=O)C(CCCCCCCCCC(F)(F)F)=C(C)C1=O [Compound 1] | – | – | – | restored oxygen consumption rate in a dose-dependent manner | roughly equivalent in their anti-ferroptosis properties | roughly equivalent in their anti-ferroptosis properties | about equally protective | about equally protective | – | ~13.7 µM | superior to Compounds 2, 3 and 4 |
